# According to patent US20190308987A1, “DUAL MODULATORS OF BOTH MU AND KAPPA OPIOID RECEPTORS” (priority 2016, published 2019):
# Key:
# [1] = target: T1, DOR (Homo sapiens, UniProt P41143); test: [35S]GTPγS-binding assay, DOR-expressing CHO cell membranes; assay type: biochemical
# T1 construct: expressed in transfected cells; host or cells: CHO cells (membranes)
# Method: [^35S]-GTPγS-Binding Assays using DOR- or KOR-Expressing CHO Cell Lines: Cell membranes (10 μg protein) were incubated with 10 μM GDP and 0.1 nM [^35S]-GTPγS in assay buffer in the presence and absence of varying concentrations of BNAP, 3 μM SNC80 (standard full agonist at DOR) or 3 μM U50,488H (standard full agonist at KOR) for 90 min at 30° C. Nonspecific binding was determined with 10 μM unlabeled GTPγS. The reaction was terminated and bound radioactivity determined as described above and previously.^9
# (§1) All samples were assayed in triplicate and repeated at least twice for a total of 3 independent determinations. Results were reported as mean values±SEM. Concentration-effect curves were fit by nonlinear regression to a one-site binding model, using GraphPad Prism software, to determine EC50 and Emax values. IC50 values were obtained from Hill plots and analyzed by linear regression using Microsoft Excel software. Binding Ki values were determined from IC50 values using the Cheng-Prusoff equation: Ki=IC50/l+([L]/KD), where [L] is the concentration of […] and KD is the KD of the radioligand.
# [2] = tested on: colonic motility; test: Colonic bead expulsion assay; assay type: in vivo, mice
# Method: Mice were habituated and fasted as described above for the gastrointestinal transit analysis. […] At 20 min post-injection, animals were anesthetized with isoflurane (1-2 min) to insert a single 2-mm glass bead into the distal colon at a distance of 3 cm from the anus. Bead insertion was accomplished using a glass rod with a fire-polished end to avoid tissue damage and marked at 3 cm.^25 After bead insertion, mice were placed in individual cages and the time to bead expulsion was monitored. Animals were monitored for a maximum of 2 h unless bead expulsion occurred sooner.
# [3] = tested on: morphine antinociception; test: Warm water tail immersion (tail flick) test; assay type: in vivo, Swiss Webster mice
# Method: Male Swiss Webster mice (Harlan Laboratories, Indianapolis, Ind.) weighing 25-30 g were housed 5 to a cage in animal care quarters and maintained at […] on a 12 h light-dark cycle. Food and water were available ad libitum. The mice were brought to a test room (22±2° C., 12 h light-dark cycle), marked for identification and allowed 18 h to recover from transport and handling. Protocols and procedures were approved by the Institutional Animal Care and Use Committee (IACUC) at Virginia Commonwealth University Medical Center and comply with the recommendations of the IASP (International Association for the Study of Pain).
# The warm water tail-immersion test was performed according to previously described methods using a water bath with the temperature maintained at 56±0.1° C.^20 Briefly, before giving the mice injections, a baseline (control) latency was determined. Only mice with a control reaction time of 2 to 4 s were used. The average baseline latency for these experiments was 3.0±0.1 s. The test latency after drug treatment was assessed at the appropriate time, and a 10 s maximal cutoff time was imposed to prevent tissue damage. Antinociception was quantified according to established procedures as the percentage of maximum possible effect (% MPE), which was calculated as follows: % MPE=[(test latency−control latency)/(10−control latency)]×100.^21 Percentage MPE was calculated for each mouse, using at least six mice per group.
# Intracerebroventricular (ICV) injections were performed as described previously.^22 Mice were anesthetized with 2.5% isoflurane and a horizontal incision was made in the scalp. A needle was inserted to a depth of 3 mm into the lateral ventrical (2 mm rostral and 2 mm lateral at a 45° angle from the bregma). At intervals, 5 μL injections of drug or vehicle were made using this guide insertion to the same depth using a needle with a guard in nonanesthetized animals.^22, 23 Animals underwent the anesthetized surgery in the morning of the experiment and were then injected with drug at intervals indicated in the text without additional anesthesia. Immediately after testing, the animals were euthanized to minimize any type of distress, according to IACUC guidelines.
# [4] = target: T2, mu opioid receptor (MOR) (Mus musculus, UniProt P42866); test: Competitive radioligand binding, MOR ([3H]naloxone); settings: mean ± SEM of three experiments
# T2 construct: expressed in transfected cells; host or cells: CHO cells (membranes)
# T2 sequence (P42866 whole entry): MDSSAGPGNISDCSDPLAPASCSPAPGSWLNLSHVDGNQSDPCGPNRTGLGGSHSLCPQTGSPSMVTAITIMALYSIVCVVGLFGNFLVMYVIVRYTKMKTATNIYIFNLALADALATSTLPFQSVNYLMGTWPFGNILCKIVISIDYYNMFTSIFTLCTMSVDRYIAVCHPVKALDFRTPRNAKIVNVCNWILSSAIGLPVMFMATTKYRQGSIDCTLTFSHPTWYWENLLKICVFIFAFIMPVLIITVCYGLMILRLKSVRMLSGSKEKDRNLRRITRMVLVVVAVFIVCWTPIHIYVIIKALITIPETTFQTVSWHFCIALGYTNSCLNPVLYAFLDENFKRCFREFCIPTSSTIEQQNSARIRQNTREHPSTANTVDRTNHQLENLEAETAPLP
# Method: (§2) The details of the Radioligand Binding and Functional Studies that were used were described previously.^19 Chinese hamster ovarian (CHO) cell lines were used as monoclonal opioid receptor expressing cells. The μ, δ, and κ opioid receptors were labeled with [^3H]naloxone, ^3H-naltrindole ([^3H]NTI) and ^3H-nor-Binaltorphimine ([^3H]norBNI). The opioid receptor expressing cell membranes were incubated with the radioligands at different concentrations of the drug under investigation at 30° C. for 1 h. With the absence and presence of 10 μM naltrexone, specific binding was got as the difference in binding obtained. The specific binding of the drugs to the radioligand was calculated from data using linear regression analysis of Hill plots.
# as §1
# [5] = tested on: guinea pig ileum Longitudinal Muscle Myenteric Plexus (LMMP); test: Electrical field stimulated contractions in LMMP strips
# Method: Male albino guinea pigs (350-450 g) were euthanized by asphyxiation with CO2. A segment of ileum was removed and placed in a dissection bath filled with pre-oxygenated Krebs' solution (118 mM NaCl, 4.6 mM KCl, 1.3 mM NaH2PO4, 1.2 mM MgSO4, 25 mM NaHCO3, 11 mM glucose, and 2.5 mM CaCl2). Longitudinal Muscle Myenteric Plexus (LMMP) strips were prepared as previously described.^26 Electrical field stimulation (EFS) (50 V, 7.5 Hz, unless stated otherwise) was applied through concentric electrodes over longitudinal muscle or L-type stimulating electrodes over circular muscle strips to produce neurogenic contractions/relaxations. Drugs were added in single or cumulative doses depending on the assay to determine their inhibitory effects on the neurogenic responses.
# [6] = target: T3, delta opioid receptor (DOR) (Homo sapiens, UniProt P41143); test: Competitive radioligand binding, DOR ([3H]NTI); settings: read-out: Ki (nM) ± SEM
# T3 construct: expressed in transfected cells; host or cells: CHO cells (membranes)
# T3 sequence (P41143 whole entry): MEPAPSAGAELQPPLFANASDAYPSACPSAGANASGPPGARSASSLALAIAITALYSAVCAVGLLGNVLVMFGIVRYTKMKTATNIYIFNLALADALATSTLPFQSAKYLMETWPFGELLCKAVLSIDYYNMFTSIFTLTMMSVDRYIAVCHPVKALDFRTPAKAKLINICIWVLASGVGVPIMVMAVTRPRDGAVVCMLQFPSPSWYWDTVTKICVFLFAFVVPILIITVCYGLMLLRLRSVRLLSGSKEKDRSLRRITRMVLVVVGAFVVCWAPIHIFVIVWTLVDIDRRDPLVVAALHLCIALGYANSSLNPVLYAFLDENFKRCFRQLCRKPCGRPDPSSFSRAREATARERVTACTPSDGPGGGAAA
# Method: as §2, §1
# T1 sequence (P41143 whole entry): as above
compound,measurement,setting,value
O=C(N[C@@H]1CC[C@@]2(O)[C@H]3Cc4ccc(O)c5c4[C@@]2(CCN3CC2CC2)C1O5)c1cc[n+](Cc2ccccc2)cc1 (stereo partly drawn) [BNAP],EC50,[1]; 35S-GTP[γS],108 ± 69 nM
same,% max of agonist,[1]; Emax relative to full agonist SNC80,9.2±2.2%
same,bead expulsion time,"[2]; BNAP alone 10 mg/kg, naive mice 17 min",43 min
same,antagonism of morphine's effect on bead expulsion,[2]; BNAP concurrently or 5 or 15 min before morphine,no significant antagonism of morphine's effects was observed
same,antinociception of compound alone,"[3]; 1.0 μg/5 μL ICV, compared to morphine alone",did not produce significant antinociception
same,antagonism of morphine antinociception,"[3]; 10 mg/kg s.c., any morphine dose tested",did not significantly antagonize morphine antinociception
same,antinociceptive effect of compound alone,"[3]; 10 mg/kg s.c., warm water tail flick, mice",did not produce significant antinociceptive effects
same,dose giving complete reversal of morphine antinociception,"[3]; ICV, dose dependent reversal",0.3 μg/5 μL
same,Ki,[4],0.76 ± 0.09 nM
same,IC50,"[5]; Cavia porcellus, guinea pig ileum LMMP, read-out: pIC50 for inhibition of EFS contractions (converted)",13.8 nM
same,effect of nor-BNI on agonist concentration-response curve,"[5]; nor-BNI pretreatment 15 min, dose dependent",dose dependently shifted the BNAP concentration-response curve to the right
same,Ki,[6],722 ± 65 nM
